Measured values taken from patent EP3023007A1, “[…]” (JIANGSU ROTAM CHEMISTRY CO., LTD., priority 2013, dated 2015).

Assays:
cabbage leaf spot = assay: Toxicity test of leaf spot of cabbage (pot test on sprayed seedlings, EC50 and co-toxicity coefficient by Sun Yunpei's method); assay type: in vivo; conditions: for EC50 (PPM): cabbage seedlings, sprayed 24 h before inoculation, disease index after seven days; for TTI: toxicity index, cabbage leaf spot
Method: (§1) The toxicity index of each of the formulations and the co-toxicity coefficient (CTC value) of the mixed formulation were calculated according to Sun Yunpei's method. […] Actual toxicity index (ATI) = (standard formulation EC50/testing formulation EC50)*100 [formula]
(§2) Theoretical toxicity index (TTI) = (toxicity index of formulation A * percentage of A in the mixed formulation) + (toxicity index of formulation B * percentage of B in the mixed formulation) Co−toxicity coefficient (CTC) = [actual toxicity index(ATI) of the mixed formulation/theoretical toxicity index (TTI)of the mixed formulation]*100 [formula]
(§3) The samples were selected from the cabbage seedlings in the same growing period. Three pots were selected for each treatment and each pot was sprayed with 5 mL with a potter spray tower at the pressure of 50 PSI and each chemical was set for 12 concentration gradients. Inoculation was carried out 24 hours after the treatment of the formulations. The conidiums from the leaves with cabbage leaf spot (collected from the field) was spread evenly on the cabbage seedlings, and the cabbage seedlings were then put in the green house for culturing.
(§4) Seven days later, the disease index for the whole plant was studied according to the pathological grading standard of cabbage leaf spot. The prevention and control efficacy was determined, and the generalized least square method was then applied to calculate the half maximal effective concentration EC50. The Sun Yunpei's method was applied to calculate the co-toxicity coefficient (CTC). Table 3: Toxicity Test Result of Applying the Present Invention to Prevent and Control Leaf Spot of Cabbage

potato gray mold = assay: Toxicity test of potato gray mold (pot test on sprayed seedlings, EC50 and co-toxicity coefficient by Sun Yunpei's method); assay type: in vivo; conditions: for EC50 (PPM): potato seedlings, sprayed 24 h before inoculation, disease index after seven days; for TTI: toxicity index, potato gray mold
Method: as §1, §2
(§5) The samples were selected from potato seedlings in the same growing period of three to four leaf stage. Three pots were selected for each treatment and each pot was sprayed with 5 mL with a potter spray tower at the pressure of 50 PSI and each chemical was set for 12 concentration gradients. Inoculation was carried out 24 hours after the treatment of the formulations. The conidiums from the leaves with potato gray mold (collected from a field) was spread evenly on the potato seedlings, and then the potato seedlings were put in the green house for culturing.
as §4, with “potato gray mold.” for “cabbage leaf spot.”, “was” for “was then”, “2:” for “3:”, “Potato Gray Mold” for “Leaf Spot of Cabbage”

tomato downy mildew = assay: Toxicity test of downy mildew of tomato (pot test on sprayed seedlings, EC50 and co-toxicity coefficient by Sun Yunpei's method); assay type: in vivo; conditions: for EC50 (PPM): tomato seedlings, sprayed 24 h before inoculation, disease index after seven days; for TTI: toxicity index, tomato downy mildew
Method: as §1, §2
as §3, with “tomato” for “cabbage”, “set” for “set for”, “tomato downy mildew” for “cabbage leaf spot”
as §4, with “tomato downy mildew.” for “cabbage leaf spot.”, “4:” for “3:”, “Tomato Downy Mildew” for “Leaf Spot of Cabbage”

potato cinerea = assay: Activity of preventing and controlling grey mould of potato (Colby synergy test, visual observation); assay type: in vivo; conditions: Solanum tuberosum, potato seedlings in pots, read-out: Observed activity (%)
From the text: A synergistic effect exists when the fungicidal activity of the active compound composition is greater than the sum of the activities of the active compounds applied individually. The expected activity for a given combination of two active compounds can be calculated in accordance with Colby's formula (refer to S.R. Colby, "Calculating Synergistic and Antagonistic Responses of Herbicide Combinations", Weeds 1967, 15, 20-22) as follows: • If X denotes the activity when using active compound A at an application rate of mg/ha or in a concentration of mppm; • Y denotes the activity when using active compound B at an application rate of ng/ha or in a concentration of nppm; • E denotes the activity when using active compounds A and B at application rates of m and ng/ha or in concentration of m and n ppm;
Then: E = X + Y−(X⋅Y)/(100) [formula]
The leaves of the potato seedlings in pots were sprayed with the suspension concentrate in a range of concentrations of the active compounds.
The next day, the treated plants were inoculated with a spore suspension of potato cinerea. The pots were then allowed to stand for 24 hours in a room at 20-22 °C and with high humidity (90-95%). During this period, the spores germinated and the germ tubes penetrated into the leaf tissues. […] Later, the development of cinerea on the leaves was determined by visual observation.

wheat downy mildew = assay: Toxicity test of wheat downy mildew (pot test on sprayed seedlings, EC50 and co-toxicity coefficient by Sun Yunpei's method); assay type: in vivo; conditions: for TTI: toxicity index, wheat downy mildew; for EC50 (PPM): wheat seedlings, sprayed 24 h before inoculation, disease index after seven days
Method: as §1, §2
as §5, with “wheat” for “potato”, “wheat downy mildew” for “potato gray mold”
as §4, with “wheat downy mildew.” for “cabbage leaf spot.”, “was” for “was then”, “1:” for “3:”, “Wheat Downy Mildew” for “Leaf Spot of Cabbage”

sclerotia sclerotium = conditions: after applying it once in a suitable period; cited from earlier work

N#Cc1c(Cl)c(Cl)c(Cl)c(C#N)c1Cl [Chlorothalonil, 2,4,5,6-tetrachloro-1,3-benzenedicarbonitrile]
EC50 (PPM) (cabbage leaf spot): 38.03 PPM
TTI (cabbage leaf spot): 68.71
EC50 (PPM) (potato gray mold): 38.03 PPM
TTI (potato gray mold): 68.71
EC50 (PPM) (tomato downy mildew): 32.27 PPM
TTI (tomato downy mildew): 68.91
activity at 40 ppm (potato cinerea; Concentration 40 ppm): 0%
TTI (wheat downy mildew): 86.5
EC50 (PPM) (wheat downy mildew): 18.76 PPM

O=C(Nc1ccccc1-c1ccc(Cl)cc1)c1cccnc1Cl [Boscalid, 2-chloro-N-(4'-chlorobiphenyl-2-yl) nicotinamide]
EC50 (PPM) (cabbage leaf spot): 26.13 PPM
TTI (cabbage leaf spot): 100
control effect and disease index (sclerotia sclerotium): more than 80%
EC50 (PPM) (potato gray mold): 15.23 PPM
TTI (potato gray mold): 100
EC50 (PPM) (tomato downy mildew): 22.24 PPM
TTI (tomato downy mildew): 100
activity at 8 ppm (potato cinerea; Concentration 8 ppm): 28%
TTI (wheat downy mildew): 100
EC50 (PPM) (wheat downy mildew): 16.23 PPM
